The assay deals with SKOV-3 cells. As to the kind of experiment: Boyden chamber migration assay. It is filed as cell-based. Conditions: SKOV-3, 8 μm pores, 24 h. As for the experimental part:
FIG. 14 is data related to a Boyden chamber assay. […] Cells were washed, fixed, stained with hematoxylin and 4 random fields were counted at 20× magnification. FIG. 14B is a set of images after cells were later incubated with Hoechst dye for 10 min. and images were obtained at 10× magnification.
In order to confirm the role of CPP-ELPs in preventing migration of SKOV-3 cells, a boyden chamber assay was performed (35). This assay involves a membrane with pore size of 8 μm. SKOV-3 cells are plated on one side of the membrane, and a chemoattractant (FBS) is placed on the opposite side of the membrane. The cells are allowed to migrate trough the pores toward the chemoattractant for […], and the cells which penetrated the membrane are quantified by cell counting and independently by Hoechst staining and fluorescence microscopy. […] Serum starvation of cells overnight ruled out the fact that proliferation was a contributing factor in this assay.

Regarding “Tat (YGRKKRRQRRR; Tat CPP) [Tat peptide]”, the “migration across the membrane toward FBS” value is listed as “migrated across the membrane”.

The values are drawn from US9682118B1, “Inhibition of metastasis by cell penetrating peptides” (University of Mississippi Medical Center, priority 2006, dated 2017).
